Laboratory results published in patent US20100317673A1, “N-HETEROCYCLIC-IMIDAZO[1,2-a]PYRIDINE-2-CARBOXAMIDE DERIVATIVES, THEIR PREPARATION AND THEIR THERAPEUTIC APPLICATION” (SANOFI-AVENTIS, priority 2008, published 2010).
pEC50: −log10 of the molar value.

Target: T1, mouse Nurr1 receptor (Mus musculus, UniProt Q06219)
T1 construct: a cell line (N2A) endogenously expressing the mouse Nurr1 receptor; host or cells: Neuro-2A (N2A) mouse neuroblastoma cells stably transfected with 8NBRE-luciferase
T1 sequence (Q06219 whole entry): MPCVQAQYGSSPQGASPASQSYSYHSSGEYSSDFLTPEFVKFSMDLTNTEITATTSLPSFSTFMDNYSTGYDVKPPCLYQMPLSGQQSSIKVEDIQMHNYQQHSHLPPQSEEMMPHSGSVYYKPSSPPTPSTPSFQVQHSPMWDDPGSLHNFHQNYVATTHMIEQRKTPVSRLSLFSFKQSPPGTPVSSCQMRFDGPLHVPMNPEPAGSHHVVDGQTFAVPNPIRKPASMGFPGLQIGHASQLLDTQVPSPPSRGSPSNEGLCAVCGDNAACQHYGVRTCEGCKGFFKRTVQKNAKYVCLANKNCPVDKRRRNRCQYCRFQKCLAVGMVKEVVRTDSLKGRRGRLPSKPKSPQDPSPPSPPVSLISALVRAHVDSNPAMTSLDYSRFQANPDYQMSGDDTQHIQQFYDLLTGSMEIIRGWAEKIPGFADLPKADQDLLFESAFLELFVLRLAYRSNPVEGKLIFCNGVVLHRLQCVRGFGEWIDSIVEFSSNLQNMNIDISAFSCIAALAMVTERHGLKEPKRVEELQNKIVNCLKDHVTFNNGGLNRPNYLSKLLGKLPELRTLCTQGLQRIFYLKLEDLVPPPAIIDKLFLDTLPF
Assay: In vitro activity on N2A cells (NBRE-luciferase reporter)
Format: cell-based
Settings: N2A (Neuro-2A) cells endogenously expressing mouse Nurr1, stably transfected with 8NBRE-luciferase; 24 hours incubation
Description: The activity of the compounds according to the invention was evaluated on a cell line (N2A) endogenously expressing the mouse Nurr1 receptor and stably transfected with the NOT binding response element (NBRE) coupled to the luciferase reporter gene. The EC50 values are between 0.01 and 1000 nM. The assays were carried out according to the procedure described below.
The Neuro-2A cell line comes from a standard commercial source (ATCC). The Neuro-2A clone was obtained, from a spontaneous tumour originating from an A albino mouse strain, by R. J Klebe et al. This Neuro-2A line is subsequently stably transfected with 8NBRE-luciferase. The N2A-8NBRE cells are cultured until confluence in 75 cm^2 culture flasks containing DMEM supplemented with 10% of foetal calf serum, 4.5 g/l of glucose and 0.4 mg/ml of geneticin. After a week of culture, the cells are recovered with 0.25% trypsin for 30 seconds and then resuspended in DMEM without phenol red, containing 4.5 g/l of glucose and 10% of Hyclone delipidized serum, and deposited into transparent-bottom 96-well white plates. The cells are deposited at a rate of 60 000 per well in 75 μl for 24 hours before the addition of the products. The products are applied in 25 μl and incubated for a further 24 hours. On the day of the measurement, an equivalent volume (100 μl) of Steadylite is added to each well and then left for a period of 30 minutes in order to obtain complete cell lysis and maximum signal production. The plates are subsequently measured in a luminescence counter for microplates after having been sealed with an adhesive film. The products are prepared in the form of a stock solution at 10^−2M and then diluted in 100% of DMSO. Each product concentration is prediluted in culture medium before incubation with the cells, thus containing 0.625% final concentration of DMSO.

Compound	pEC50
CN(C)c1ccc2nc(C(=O)Nc3ccon3)cn2c1 [Compound 39, 6-(Dimethylamino)-N-(isoxazol-3-yl)imidazo[1,2-a]pyridine-2-carboxamide]	7.98
O=C(Nc1ccccn1)c1cn2cc(-c3cccc(CO)c3)ccc2n1 [Compound 7, 6-[3-(Hydroxymethyl)phenyl]-N-(pyridin-2-yl)imidazo[1,2-a]pyridine-2-carboxamide]	10.40
O=C(Nc1ccccn1)c1cn2cc(Cl)ccc2n1 [Compound 4, 6-Chloro-N-(pyridin-2-yl)imidazo[1,2-a]pyridine-2-carboxamide]	8.66
CN(C)c1ccc2nc(C(=O)Nc3ccccn3)cn2c1 [Compound 8, 6-(Dimethylamino)-N-(pyridin-2-yl)imidazo[1,2-a]pyridine-2-carboxamide]	9.30
